Measured values as given in patent publication US10420753B2, “Combination therapies for treatment of spinal muscular atrophy” (Indiana University Research and Technology Corporation, priority 2016, dated 2019).

What was measured:
[1] = test system: SMN2 reporter (SMN2-luciferase) in HEK293 cells; assay: SMN2-luciferase reporter assay; format: cell-based, human; parameters: % Activation: concentration or dose not given beside the values; conditions: for EC50: Homo sapiens, HEK293; for % Activation: percentage increase over basal expression in DMSO control wells
Protocol: (§1) In this high throughput screening assay, the SMN promoter was combined with exons 1-6 and an exon 7 splicing cassette in a single construct that should respond to compounds that increase SMN transcription, exon 7 inclusion, or that might stabilize the SMN RNA or protein. A stable clonal HEK293 cell line that expresses the SMN2 reporter was isolated. Particularly, cells were incubated at 37° C. with 5% CO2. HEK-293 cells were cultured in D-MEM (Gibco 11995) with 10% fetal bovine serum (FBS; Atlas) and 1× pen-strep (Gibco 15140). Reporter cell lines containing SMN1, SMN2, or SV40 driven firefly luciferase reporters and a control (renilla luciferase reporter) were selected and maintained in D-MEM with 10% FBS and 1× pen-strep with 200 μg/mL hygromycin B (Invitrogen 10687-010). 3813 and 3814 fibroblasts were cultured in D-MEM (Gibco 11995) with 10% fetal bovine serum (FBS; Atlas) and 1× pen-strep (Gibco 15140).
The HEK293 reporter cell lines were then plated at 50,000 cells per well in 96-well plates and incubated overnight. […] The final DMSO concentration was 0.1%. Luciferase activity was assayed with either SteadyGlo (Promega E2510) or DualGlo (Promega E2920) luciferase using the Pherastar FS (BMG Labtech) plate reader. For detailed assay conditions, see Table 4. All data points were transformed from light units to percentage increase over basal expression in the treated control wells (DMSO concentration as appropriate, usually 0.1%) and expressed as percent activation (FIG. 1A). […]

[2] = test system: SMN protein in patient-derived fibroblasts (3813 cells; SMN1-/-SMN2+/+); assay: SMN protein detection in patient fibroblasts by Western blot; format: cell-based, human; conditions: 3813 fibroblasts, 48 hours, dose dependent, relative to DMSO control
Protocol: For detection of SMN protein in patient fibroblasts, 8000 cells per cm^2 were plated 24 hours prior to compound addition. Since SMN is expressed ubiquitously, cells containing even one copy of the human SMN1 gene will mask the effects of compounds on expression from the SMN2 gene. SMN null cells are not viable. The current standard is to use a human cell line derived from a severe SMA patient. The fibroblast strain 3813 is SMN1 null with three copies of SMN2. […] SMN protein levels were analyzed by dose response in quantitative immunoblots with statistical analysis by one-way ANOVA with post-hoc analysis using Dunnett or Bonferroni, as appropriate. […] Quantification of protein was performed with the Fujifilm LAS-4000 Multifunctional Imaging System. The signal intensity was measured for each band on an immunoblot, normalized to the loading control, and the fold increase was determined in relation to the appropriate DMSO-treated control. Treatment of patient-derived fibroblasts (3813 cells; SMN1−/−SMN2+/+) with compound 291-88-1 gave a dose dependent 2-3 fold increase of SMN protein expression as determined by Western blot analysis (FIG. 1B).

renilla luciferase = assay: Renilla luciferase control in cycloheximide experiment; format: cell-based; conditions: 10 μM compound plus 10 μM cycloheximide
Protocol: as §1
To investigate the mechanism of action of LDN291-88-1, the HEK293 SMN2 reporter cells were exposed to LDN291-88-1 at a concentration of 10 μM plus 10 μM cycloheximide to block new protein synthesis, or the same concentration of cycloheximide plus DMSO for comparison. Cell lysates were prepared at the times indicated up to 24 hours as in FIGS. 3A & 3B. The amount of SMN-luciferase protein was quantified by luciferase assay and plotted versus time. […]

SMNΔ7 SMA mice = assay: Survival of SMA mice; format: in vivo; conditions: 10 mg/kg IP daily
Protocol: Compound 291-88-1 was administered either by intraperitoneal (IP) administration into the SMA mice SMNΔ7 FVB.SMNΔ7; SMN2; Smn (Jackson Laboratories 005025). Daily treatment of SMNΔ7 animals with 10 mg/kg (IP) was continued as long as feasible. The lifespan of treated animals was compared to that of untreated animals and vehicle (VH) treated animals (FIG. 13). VH treated animals included treatment with 40% PEG400+60% (10% HP-β-CD in water). […] Treatment with compound 291-88-1 increased median survival to 18.5 days, p<0.0001.

[3] = test system: total SMN protein in brain extracts; assay: Brain SMN protein in treated mice, Western blot; format: in vivo; conditions: once daily subcutaneous or oral for 5 days from PND2, tissues PND7, dose-dependent
Protocol: Animals were treated once daily (subcutaneous injection or oral) for 5 days, starting on postnatal day 2 (PND) with increasing doses of 291-88-1. On PND7, mice were sacrificed and tissues were harvested. Tissues were harvested from treated animals on PND 7 and compared to tissues from non-transgenic control mice (FVB) and VH (vehicle: PEG:PBS 50:50) treated animals. Brain extracts were assayed for total SMN protein in comparison to the housekeeping genes, actin and GAPDH (FIGS. 14 and 15, respectively). There was a dose-dependent increase in SMN protein levels ranging from 2-3 fold.

| Compound | EC50 [1] [nM] | % Activation [1] [%] | further results |
| --- | --- | --- | --- |
| O=C(Nc1nc2ncc(C(F)(F)F)cc2s1)c1ccccn1 [Compound 287-51-1] | 1000 | 110 |  |
| O=C(Nc1nc2cnc(C(F)(F)F)cc2s1)c1ccccn1 [Compound 299-15-1] | 172 | 169.5 |  |
| Cc1cc(C(=O)Nc2nc3cnc(C(F)(F)F)cc3s2)no1 [Compound 324-33-1] | 5400 | 110 |  |
| O=C(Nc1nc2cnc(C(F)(F)F)cc2s1)c1ccns1 [Compound 324-36-1] | 64 | 198 |  |
| O=C(Nc1nc2cnc(C(F)(F)F)cc2s1)c1ccsn1 [Compound 324-48-1] | 335 | 210 |  |
| O=C(Nc1nc2ncc(C(F)(F)F)cc2s1)c1cncs1 [Compound 299-10-1] | 3200 | 112 |  |
| O=C(Nc1nc2cnc(C(F)(F)F)cc2s1)c1nccs1 [Compound 311-85] | 163 | 218 |  |
| O=C(Nc1nc2cnc(C(F)(F)F)cc2s1)c1ccnnc1 [Compound 299-63-1] | 11300 | 163 |  |
| O=C(Nc1nc2cnc(C(F)(F)F)cc2s1)c1cncnc1 [Compound 301-90-1] | 2700 | 170 |  |
| O=C(Nc1nc2cnc(C(F)(F)F)cc2s1)c1cc[nH]n1 [Compound 324-25-1] | 2040 | 178 |  |
| COc1cc2sc(NC(=O)c3ccccc3)nc2cn1 [Compound 324-2-1] | 675 | 150 |  |
| O=C(Nc1nc2cnc(C(F)(F)F)cc2s1)c1cnsc1 [Compound 324-44-1] | 380 | 220 |  |
| O=C(Nc1nc2cnc(C(F)(F)F)cc2s1)c1ccncn1 [Compound 299-73-1] | 2680 | 162 |  |
| O=C(Nc1nc2cnc(C(F)(F)F)cc2s1)c1ccc(F)cc1 [Compound 311-65] | 612 | 87.5 |  |
| O=C(Nc1nc2cnc(C(F)(F)F)cc2s1)c1ccon1 [Compound 299-55-1] | 245 | 245 |  |
| O=C(Nc1nc2cnc(C(F)(F)F)cc2s1)c1ccno1 [Compound 324-26-1] | 214 | 193 |  |
| O=C(Nc1nc2ncc(C(F)(F)F)cc2s1)c1cscn1 [Compound 299-9-1] | 1220 | 154 |  |
| O=C(Nc1nc2cnc(Cl)cc2s1)c1ccccc1 [Compound 299-1-1] | 2020 | 154 |  |
| O=C(Nc1nc2cnc(C(F)(F)F)cc2s1)c1cocn1 [Compound 299-54-1] | 1140 | 208 |  |
| O=C(Nc1nc2cnc(C(F)(F)F)cc2s1)c1cnco1 [Compound 299-53-1] | 4400 | 200 |  |
| O=C(Nc1nc2cnc(C(F)(F)F)cc2s1)c1cncs1 [Compound 299-93-1] | 142 | 140 |  |
| O=C(Nc1nc2cnc(C(F)(F)F)cc2s1)c1cccnc1 [Compound 299-16-1] | 154 | 177 |  |
| O=C(Nc1nc2cnc(C(F)(F)F)cc2s1)c1cscn1 [Compound 311-84] | 620 | 270 |  |
| O=C(Nc1nc2cnc(C(F)(F)F)cc2s1)c1ncco1 [N-(6-trifluoromethyl)thiazolo[4,5-c]pyridin-2-yl)oxazole-2-carboxamide] | 1300 | 74 |  |
| O=C(Nc1nc2cnc(C(F)(F)F)cc2o1)c1ccccc1 [Compound 301-62-1] | 1250 | 80 |  |
| O=C(Nc1nc2cnc(C(F)(F)F)cc2s1)c1ccccc1 [Compound 291-88-1] | 169 | 216 | maximal increase in SMN-luciferase greater than the DMSO control ([1]; 48 hours, 3 μM): 400%; increase of SMN protein expression [2]: 2-3 fold; effect on renilla luciferase (renilla luciferase): no effect; median survival (SMNΔ7 SMA mice): 18.5 days; increase in SMN protein levels in brain [3]: 2-3 fold |
| O=C(Nc1nc2ncc(C(F)(F)F)cc2s1)c1ccccc1 [Compound 287-98-2] | 2300 | 150 |  |
